Data as given in patent US6780887B1, “Anti-ischemic compounds” (Societe de Conseils de Recherches et d'Applications …, priority 1999, dated 2004).
“Also recorded” adds a separate entry of the source.

Legend:
[1] = test system: purified mitochondria obtained from rat livers; assay: In vitro mitochondrial respiration (stages III and IV, RCR) of purified mitochondria preincubated with compounds; type: biochemical; conditions: for RCR increase (*): in % relative to the control brought to 100%; for Concentration (optimum concentration at which the effect was observed): RCR increase; for Concentration of maximum/optimal effect on RCR (optimal concentration in pre-incubation): rat liver mitochondria preincubated with compound; for Effect on mitochondria RCR (in words) / Effect on respiration stage IV (in words): in vitro
Method: The mitochondria are isolated according to the method described by Nowicki et al., J. of Cerebral Blood Flow and Metabolism 2, p. […] The mitochondrial respiration is measured by an oxygen electrode connected to a recorder. The RCR represents the respiratory control, and represents the ratio of the oxygen consumption in the presence of an endogenous substrate (glutamate/malate) to the consumption after ADP phosphorylation in ATP.
The RCR has been subsequently calculated.

[2] = test system: neutrophil adherence to the endothelial cells; assay: Neutrophil adherence to endothelial cells incubated under hypoxia; type: cell-based, human; conditions: 10^−8 mol/l
Method: After incubation, the cells are co-incubated with a non stimulated human neutrophil suspension.

heart mitochondria = assay: In vivo effect on heart mitochondria RCR after treatment of rats per os for one day; design: species or system rat
Method: The following day, the rats are sacrificed and their mitochondria are isolated from the heart. Their respiratory activity is measured every 15 minutes for the 75 minutes following the isolation procedure.

hepatic mitochondria = assay: In vivo effect on liver mitochondria RCR after treatment of rats per os for 5 days; design: species or system rat; conditions: for Effect on respiration stage IV (in words): liver mitochondria
Method: Following the treatment, the rats are sacrificed. The mitochondria are isolated from the liver and their respiratory activity is measured every 15 minutes for the 75 minutes following the isolation procedure.

[3] = test system: endothelial cells of the human umbilical vein; assay: Protection of ATP content in endothelial cells incubated under hypoxia; type: cell-based; conditions: for Average maximum protection of the decrease in ATP content induced by hypoxia: endothelial cells
Excerpt: This variability is inherent to the experimental model. Indeed, for each experiment, a different culture is used from different umbilical cord isolated cells and there is a behaviour variability of the cells from one cord to another.

[4] = Stability in human plasma (GC); type: in vitro ADME; conditions: 24 hours, 37° C.
Method: The compounds of examples 1 and 2 have been submitted to stability tests in order to evaluate their behaviour when in contact with plasma after a 3 and 24 hour incubation at a temperature of 37° C. These tests have been performed using GC following the evolution of chromatograms of the different esters compared to an internal standard as a function of time.
The injection of GC/MF pure products has been performed in the following conditions:
injection temperature: 250° C.
initial temperature: 40° C.
final temperature: 250° C.
temperature gradient: 10° C./mn
The different compounds have been prepared as follows: 10 μl of pure compound have been dissolved in 100 μl plasma at a temperature of 37° C. The resulting solution is stirred. After a 3 or 24 hour period of time, 5 μl of internal standard (N-benzylamine) and 1 ml ether are added to the solution maintained at 37° C. The sample is centrifuged for 10 minutes at a rate of 13,000 rpm. 1 μl of the supernatant phase (ether phase) is injected in GC. The sample is then GC analyzed. […] No other peak optionally corresponding to metabolization products is observed.

Promyelocyte cells = assay: Etoposide-induced apoptosis in promyelocyte cells; type: cell-based; conditions: cells incubated with etoposide
Method: Promyelocyte cells are incubated in the presence of apoptosis-inducing agents like the etoposide, a type II topoisomerase inhibitor. After incubation, different parameters indicative of the apoptosis are detectable: caspase activation, cytochrome C release by the mitochondria, DNA fragmentation, etc.

[5] = 10^−7 M (optimum concentration)
[6] = 10^−6 M (optimum concentration)
[7] = endothelial cells under hypoxia

Compound: CCOC(=O)CN(C)C(=O)C1CCCCC1 [Ethyl N-methyl-N-cyclohexamido ethanoate, Ethyl N-methyl -N-cyclohexamido Ethanoate]
- RCR increase (*) [1, 5]: 15%
- Concentration (optimum concentration at which the effect was observed) ([1]; rat liver mitochondria): 10^−7 M

Compound: O=C(CC(=O)Nc1ccccc1)Nc1ccccc1 [N,N′-diphenylmalonamide, N-N′-diphenyl malonamide]
- RCR increase (*) [1, 5]: 5%
- Concentration (optimum concentration at which the effect was observed) ([1]; rat liver mitochondria): 10^−7 M

Compound: O=C(CC(=O)O[C@@H]1C=CCC1)O[C@@H]1C=CCC1 [di-(S)-cyclopenten-2-yl malonate, di-(S)-2-cyclopenten-2-yl malonate]
- RCR increase (*) [1, 6]: 18%
- Concentration (optimum concentration at which the effect was observed) ([1]; rat liver mitochondria): 10^−6 M

Compound: C=CCOC(=O)C12CC1COC2=O (centres unmarked) [example 2, 2-propenyl-3-Oxa-2-Oxobicyclo[3.1.0]-hexane-1-carboxylate]
- Optimal concentration in pre-incubation (mass concentration) [1]: 0.0183 µg/mL
- Concentration of maximum/optimal effect on RCR (optimal concentration in pre-incubation) [1]: 10^−7 mol/l
- Effect on mitochondria RCR (in words) ([1]; rat liver mitochondria): have an action on the RCR
- Effect on respiration stage IV (in words) ([1]; rat liver mitochondria): decrease effect
- Maximum inhibition of hypoxia induced neutrophil adherence increase [2]: 71%
- Heart mitochondria RCR increase (heart mitochondria; one day treatment, 3.6 mg/kg): 56%
- Activity on liver mitochondria RCR (in words) (hepatic mitochondria; 5 days, 0.18 mg/kg): weakly active
- Mitochondria RCR increase (maximum) (hepatic mitochondria; 5 days, 3.6 mg/kg, liver): 17%
- Effect on respiration stage IV (in words) (hepatic mitochondria; 5 days): decrease
- Average maximum protection of the decrease in ATP content induced by hypoxia ([3]; 10^−4 mol/l): 92.5%
- Concentration at which ATP protection becomes negligible [3, 7]: 10^−6 mol/l
- Stability in human plasma (GC peak of compound) [4]: not found any more

Compound: Dicyclopenten-2-yl malonate [example 1]
- Concentration at which the RCR effect becomes negligible ([1]; rat liver mitochondria): 10^−9 mol/l
- Concentration of maximum/optimal effect on RCR (optimal concentration in pre-incubation) [1]: 10^−6 mol/l
- Effect on mitochondria RCR (in words) ([1]; rat liver mitochondria): have an action on the RCR; also recorded: significatively increases
- Effect on respiration stage IV (in words) ([1]; rat liver mitochondria): strongly decreases
- Heart mitochondria RCR increase (heart mitochondria; one-day treatment, 2.36 mg/kg): 41%
- Hepatic mitochondria RCR increase (hepatic mitochondria; 5 day treatment, 2.36 mg/kg): 25%
- RCR versus control (in words) (hepatic mitochondria; 5 days, dose higher than 2.36 mg/kg): falls slightly below the control values
- Effect on respiration stage IV (in words) (hepatic mitochondria; 5 days): clear decrease
- Average maximum protection of the decrease in ATP content induced by hypoxia ([3]; 10^−4 mol/l to 10^−5 mol/l): 92.1%
- Concentration at which ATP protection becomes negligible [3, 7]: 10^−8 mol/l
- Protection of the decrease in ATP content induced by hypoxia (in words) [3, 7]: able to protect reproducibly
- Stability in human plasma (GC peak of compound) [4]: still observed
- Apoptosis induction (in words) (Promyelocyte cells): apoptosis induction inhibition is observed
- Caspase 3 activation (Promyelocyte cells): inhibited
- Cytochrome C release by the mitochondria (Promyelocyte cells): inhibited
- DNA fragmentation (Promyelocyte cells): inhibited

Compound: Ethyl 2,6-dimethyl-N-phenylamido Ethanoate
- RCR increase (*) [1, 6]: 13%
- Concentration (optimum concentration at which the effect was observed) ([1]; rat liver mitochondria): 10^−6 M

Compound: Ethyl N-phenylamido Ethanoate [Ethyl N-phenlyamido ethanoate]
- RCR increase (*) [1, 6]: 6.6%
- Concentration (optimum concentration at which the effect was observed) ([1]; rat liver mitochondria): 10^−6 M
